Experimental data taken from publication PMC5369982, “Near infrared fluorescent imaging of choline kinase alpha expression and inhibition in breast tumors” (Oncotarget, 2017).

Tests used:
MCF7-CK+ cells = assay: Cell viability, Trypan blue exclusion; assay type: cell-based, human; settings: 17 h, ± SEM, 3 experiments
Method: (§1) MCF7 cells were plated for Trypan exclusion assays at 1.0 × 10^6 cells/well in 6-well plates and treated with MN58b or JAS239, synthesized in house. At 17 h, cells were collected by trypsinization, stained with Trypan Blue, and counted using a Neubauer hemocytometer. For 3-(4,5-Dimethylthiazol-2-yl)-2,5-diphenyltetrazolium bromide (MTT) assays, cells in 96-well plates (7.5 × 10^4 cells/well) were treated with JAS239 or MN58b overnight, and stained with 20 μL of 5 mg/mL MTT (Sigma-Aldrich) for 2 h, lysed with DMSO and scanned for absorbance using a SpectraMax M5 plate reader (Molecular Devices) at 550 nm, subtracting background absorbance at 690 nm from each sample.
(§2) Supplementary Figure 2: Breast cancer cell viability in response to ChoK inhibitors. (A–D) Cell viability measurements via […]
(§3) (A) or JAS239 (B). MTT assays were performed on MDA-MB-231 and 4175-Luc+ (C, D) cells exposed to MN58b (C) or JAS239 (D).
(§4) Values are reported relative to untreated control groups and represent ± SEM for 3 separate experiments. At higher JAS239 concentrations, the MTT assay was used as JAS239 interfered with Trypan blue counting. There was no overlap in absorbance readings between the MTT formazan product and JAS239.
(§5) (1 picture or pasted object on this page, not shown here)

MCF7-EV cells = assay: Cell viability, Trypan blue exclusion; assay type: cell-based, human; settings: 17 h, ± SEM, 3 experiments
Method: as §1, §2, §3, §4, §5

4175-Luc+ cells = assay: Cell viability, MTT assay; assay type: cell-based, human; settings: 17 h, ± SEM, 3 experiments
Method: as §1, §2, §3, §4, §5

MDA-MB-231 cells = assay: Cell viability, MTT assay; assay type: cell-based, human; settings: 17 h, ± SEM, 3 experiments
Method: as §1, §2, §3, §4, §5

MDA-MB-231 tumors [1] = assay: Pharmacodynamic indicators of ChoKα inhibition (MRI/MRS); assay type: in vivo, mouse; settings: 5 days i.p., MN58b 2 mg/kg, JAS239 4 mg/kg; for Change in tumor tCho compared to control (MRS) / Tumor volume between pre- and post-treatment scans (MRI): day 7; for PUFA resonances (measure of tumor apoptosis): trend not significant
Method: Mice bearing subcutaneous 4175-Luc+ or MB-MDA-231 tumors (∼300 μL) underwent pre-treatment MRS scans in a 9.4 T horizontal bore magnet equipped with 40 G/cm gradients interfaced to an Agilent Direct-Drive console (Agilent) operating vnmrj 2.3.C software. Multi-slice gradient and spin echo images were used for tumor localization. T2-weighted spin echo anatomical images were acquired using a spin echo multi-slice (SEMS) pulse sequence (TR = 1000 ms, TE = 10 ms, number of slices = 20, field of view = 20 × 20 mm^2, slice thickness = 1 mm, NT = 1, matrix size = 256 × 128) and used for voxel selection. A single voxel ^1H PRESS spectrum was acquired in a 3×3x3 mm^3 voxel (TR = 3000 ms, TE1 = 12.68 ms and TE2 = 10.01 ms, number of averages = 128, complex points = 4096, spectral width = 4000 Hz and acquisition time of 6 min 24 sec). Water suppression was achieved using the VAPOR sequence. An unsuppressed water spectrum was acquired (8 averages) as a chemical shift and concentration reference. One week following initiation of treatment, ^1H MR spectra were acquired again. Spectra were processed using Mnova Lite 5.2.5 software (Mestrelab Research). Free induction decays were processed by 10 Hz apodization followed by Fourier transformation. Spectra were phased and chemical shift and baseline correction performed prior to fitting of the water (4.7 ppm), tCho (3.2 ppm), PUFA (2.8 ppm), and lipid (1.3 ppm) resonances. The metabolite/water ratio was determined and the percent change was determined as [post-treatment ratio – pre-treatment ratio] *100%/pre-treatment ratio.
(§6) A cohort of 15 mice was inoculated with MDA-MB-231 cells. When a volume of 300 μL was reached, tumors were scanned using MRS. Tumor volumes were measured using T2-weighted images. The animals were separated into treatment groups, and for 5 consecutive days each group was injected i.p. with 100 μL of DMSO/saline vehicle (n = 5), 2 mg/kg MN58b (n = 4), or 4 mg/kg JAS239 (n = 3). Initial cohort sizes were 5 per condition, but some animals had to be removed from the study because the treatment was so effective that we were unable to place voxels within post-treatment tumors that were too small. Follow-up MRI/MRS scanning was performed on day 7 to assess tumor growth inhibition and changes in metabolite levels. After imaging, blood was collected into heparin-coated tubes by cardiac puncture. Resected tumors were embedded in Optimum Cryo-Temperature (Sakura Finetek), flash-frozen in liquid nitrogen, and stored at –80 °C. Blood samples were submitted to the Ryan Veterinary Clinic Diagnostic labs for toxicology.

MDA-MB-231 tumors [2] = assay: Histopathology of treated tumors (H&E, Ki67, caspase-3); assay type: in vivo, mouse; settings: 5 days i.p.; MN58b 2 mg/kg, JAS239 4 mg/kg; vs control
Method: as §6
Hematoxylin and eosin staining and immunohistochemistry was performed as described previously. Caspase-3 (R&D Systems AF835) and Ki67 (Abcam ab16667) antibody staining was performed on a Bond Max automated staining system (Leica Microsystems) using the Bond Intense R staining kit (Leica Microsystems DS9263). An Aperio Scan Scope OS (Aperio Technology) was used to scan slides, and the Image Scope nuclear staining algorithm (version 9; Aperio Technology) was used to quantify Ki67 and caspase-3 positive nuclei in representative regions of each slide.

[3] = Blood toxicology after the 5-day treatment; assay type: in vivo; settings: 5 days i.p.; MN58b 2 mg/kg, JAS239 4 mg/kg
Method: as §6
Supplementary Figure 6: Both ChoKα inhibitors show early signs of tumor growth inhibition and apoptosis, however JAS239 is better tolerated in animals. (A) Vehicle-treated tumors increased in size during the treatment regimen, whereas the tumor volumes of MN58b and JAS239 treated mice were unchanged. […]

Compound: CC1(C)C(=C/C=C/C=C/C=C/C2=[N+](CCO)c3ccccc3C2(C)C)N(CCO)c2ccccc21 [JAS239]
- EC50 (MCF7-CK+ cells): 5.33 ± 0.84 µM
- EC50 (MCF7-EV cells): 4.04 ± 0.55 µM
- EC50 (4175-Luc+ cells): 35 ± 21.6 µM
- EC50 (MDA-MB-231 cells): 27.2 ± 7.9 µM
- Change in tumor tCho compared to control (MRS) (MDA-MB-231 tumors [1]): reduce tCho to noise levels
- Tumor volume between pre- and post-treatment scans (MRI) (MDA-MB-231 tumors [1]): static
- PUFA resonances (measure of tumor apoptosis) (MDA-MB-231 tumors [1]): increased
- Caspase-3 levels (MDA-MB-231 tumors [2]): higher caspase-3 levels
- Cell density (H&E) (MDA-MB-231 tumors [2]): significant reduction in cell density
- Percentage of Ki67-positive cells (MDA-MB-231 tumors [2]): significantly reduced
- Toxicology [3]: No observable or measurable toxicity

Compound: MN58b [reference compound]
- EC50 (MCF7-CK+ cells): 6.86 ± 0.43 µM
- EC50 (MCF7-EV cells): 3.29 ± 0.48 µM
- EC50 (4175-Luc+ cells): 20.7 ± 6.4 µM
- EC50 (MDA-MB-231 cells): 14.3 ± 4.6 µM
- Change in tumor tCho compared to control (MRS) (MDA-MB-231 tumors [1]): Significant reductions in tCho
- Tumor volume between pre- and post-treatment scans (MRI) (MDA-MB-231 tumors [1]): static
- PUFA resonances (measure of tumor apoptosis) (MDA-MB-231 tumors [1]): increased
- Caspase-3 levels (MDA-MB-231 tumors [2]): higher caspase-3 levels
- Cell density (H&E) (MDA-MB-231 tumors [2]): significant reduction in cell density
- Percentage of Ki67-positive cells (MDA-MB-231 tumors [2]): significantly reduced
- Toxicology [3]: elevation of blood urea nitrogen
